In patent US20170339949A1, “SUGAR SURFACTANTS AND USE THEREOF IN AGROCHEMICAL COMPOSITIONS” (Clariant International Ltd., priority 2014, published 2017):

Key:
apple leaf cuticles = experiment: Membrane penetration test with apple leaf cuticles for mesotrione; format: in vitro ADME; conditions: summary in words of Table 1
Text: Increasing the absorption of systemic active ingredients using the example of mesotrione and test system for measurement of the promotion of penetration of active ingredients
Surfactants can promote the absorption of (active) ingredients through membranes such as skin, films or the plant cuticle. As a “finite-dose” application, it is known for the single administration or application of a solution, cream, gel etc. to a membrane that the absorption of active ingredient can be influenced by some additives such as surfactants even after wetting. This effect is independent of the interfacial effect in water, is often highly concentration-dependent and takes place for the most part after evaporation of water and any solvents present rather than as a result of the interaction, for example, with active ingredient, membrane and environmental factors. […]
The potential of the test substances, which is independent of the surfactant action, to promote foliar absorption of active agrochemical ingredients was determined in membrane penetration tests with apple leaf cuticles for mesotrione. […] At regular intervals, aliquot samples were taken and the proportion of active ingredient penetrated was determined by HPLC. During the experiment, the temperature in the system (block, diffusion cells, liquids, etc.) and the air humidity above the spray coating on the cuticle were known exactly and were monitored. […]

[1] = Dynamic surface tension (Krüss PocketDyne BP2100); format: physicochemical; conditions: for Surface tension: 24.6° C.
Text: In the case of plants that are difficult to wet, such as the cereal plants wheat, barley, triticale, rye and oats, in the case of further large-scale crops corn, rice, soya and oilseed rape, and also in the case of almost all weed grasses and numerous dicotyledonous weeds that are difficult to control, such as Chenopodium album or Euphorbium heterophyllum, the promotion of the adsorption of the spray liquid on the green parts of the plant is of crucial significance. This wetting agent effect was therefore also determined for the glucamides.
For a given application technique or parameters (nozzle, pressure, water application rate, distance from the plant surface), the value for the dynamic surface tension in [mN/m] correlates well with the adhesion on plants that are difficult to wet such as barley (or cereals in general) and weed grasses. A value of 50 mN/m (at 20-21° C.) with respect to water (72.8 mN/m) results in an improvement in the adhesion from “zero adhesion” to about 50% (Baur P, Pontzen R 2007. Basic features of plant surface wettability and deposit formation and the impact of adjuvants. In: R E Gaskin ed. Proceeding of the 8th International Symposium on Adjuvants for Agrochemicals. Publisher: International Society for Agrochemical Adjuvants (ISAA), Columbus, Ohio, USA). A value below 60 mN/m at 200 ms gives visibly better adsorption of aqueous spray liquids; in the case of standard flat jet nozzles, optimal wetting is achieved.
The values for dynamic surface tension (Krüss PocketDyne BP2100, T 24.6° C.) are shown below at for the linear C810 glucamide and the decene glucamide and a pelargonamide.

[2] = weak organic acid; cited from earlier work

| SMILES | Promotion of penetration of mesotrione compared to the linear mixture of C8 and C10 glucamide (apple leaf cuticles) | Surface tension ([1]; conc. 0.6 g/L, 20 ms) [mN/m] | Surface tension ([1]; conc. 0.6 g/L, 50 ms) [mN/m] | Surface tension ([1]; conc. 0.6 g/L, 100 ms) [mN/m] | Surface tension ([1]; conc. 0.6 g/L, 200 ms) [mN/m] | Surface tension ([1]; conc. 1.25 g/L, 20 ms) [mN/m] | Surface tension ([1]; conc. 1.25 g/L, 50 ms) [mN/m] | Surface tension ([1]; conc. 1.25 g/L, 100 ms) [mN/m] | Surface tension ([1]; conc. 1.25 g/L, 200 ms) [mN/m] | Surface tension ([1]; conc. 2.5 g/L, 20 ms) [mN/m] | Surface tension ([1]; conc. 2.5 g/L, 50 ms) [mN/m] | Surface tension ([1]; conc. 2.5 g/L, 100 ms) [mN/m] | Surface tension ([1]; conc. 2.5 g/L, 200 ms) [mN/m] | Surface tension ([1]; conc. 5 g/L, 20 ms) [mN/m] | Surface tension ([1]; conc. 5 g/L, 50 ms) [mN/m] | Surface tension ([1]; conc. 5 g/L, 100 ms) [mN/m] | Surface tension ([1]; conc. 5 g/L, 200 ms) [mN/m] | pKa [2] | Suitability as wetting agent compared to Synergen GA (C810) ([1]; summary in words of dynamic surface tension results) |
| --- | --- | --- | --- | --- | --- | --- | --- | --- | --- | --- | --- | --- | --- | --- | --- | --- | --- | --- | --- |
| CCCCCCCCC(=O)N(C)C[C@H](O)[C@@H](O)[C@H](O)[C@H](O)CO [N-Methyl-N-nonanoylglucamine, N-methyl-N-nonanoylglucamine] | likewise falls short | 70.2 | 68.8 | 67.7 | 67.1 | 66.0 | 63.7 | 62.6 | 61.1 | 59.1 | 56.3 | 55.3 | 53.8 | 47.7 | 45.6 | 45.2 | 44.3 | – | – |
| CS(=O)(=O)c1ccc(C(=O)C2C(=O)CCCC2=O)c([N+](=O)[O-])c1 [Mesotrione, mesotrione] | – | – | – | – | – | – | – | – | – | – | – | – | – | – | – | – | – | 3.1 | – |
| C=CCCCCCCCC(=O)N(C)C[C@H](O)[C@@H](O)[C@H](O)[C@H](O)CO [N-Methyl-N-dec-9-enoylglucamine, N-methyl-N-dec-9-enoylglucamine] | higher promotion of penetration of mesotrione | 70.2 | 68.9 | 67.6 | 67.4 | 66.4 | 63.7 | 61.8 | 61.0 | 59.7 | 56.6 | 55.5 | 54.1 | 50.5 | 48.3 | 47.7 | 46.6 | – | wetting agent of comparable suitability |
